Source: the supplement of paper PMC7695840
Several values for one entry are separate records, joined by “and”; a condition that tells them apart may be missing. Equal values may be shown once.

What was measured:
[1] = system: Staphylococcus aureus MW2 (mecA+); assay: IC50 (growth, competition assay); conditions: cefoxitin: subinhibitory
Procedure, shortened: (§1)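 Pre-induced, 1:1-mixed fluorescent S. aureus MW2 mecA+ and ΔmecA strains were grown 20 h at 37 °C, 90% humidity, unshaken, in LB with a daily-set subinhibitory cefoxitin dose, in 1536-well plates. Compounds were given on five- or nine-point 2-fold gradients, in two dye-swapped replicates. DsRed (540/590) and GFP (485/520) were scaled per plate between single-strain control medians, with No Treatment then set to 0.5. Per-strain IC50 was the dose halving the No Treatment signal, or the maximal signal.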

[2] = system: Staphylococcus aureus MW2 delta-mecA (mecA-); assay: IC50 (growth, competition assay); conditions: cefoxitin: subinhibitory
Procedure, shortened: as §1

`CN[C@@H]1[C@@H](O)[C@@H](O[C@@H]2[C@@H](O)[C@H](O[C@H]3O[C@H]([C@@H](C)O)[C@@H](O)[C@H](O)[C@H]3N)[C@@H](N)C[C@H]2N)OC[C@]1(C)O` [GENETICIN] gave an IC50 ([1]; fluorescent label: DsRed) of under 9.85 µM, an IC50 ([1]; fluorescent label: GFP) of 12.5 µM and an IC50 ([2]; fluorescent label: DsRed) of under 9.85 µM. The IC50 ([2]; fluorescent label: GFP) was 12.4 µM.

Work on `COC(=O)C1=C(C)NC(C)=C(C(=O)OC)C1c1cccc(NC(=O)NCCCN2CCC(c3cccc(OC)c3)CC2)c1` yielded an IC50 ([1]; fluorescent label: DsRed) of 45.5 µM, an IC50 ([1]; fluorescent label: GFP) of 54.8 µM and an IC50 ([2]; fluorescent label: DsRed) of 18.2 µM. It also gave an IC50 ([2]; fluorescent label: GFP) of 13.4 µM.

With `CC(C)(C)c1cc(C=C(C#N)C#N)cc(C(C)(C)C)c1O` [Tyrphostin A9] the IC50 ([1]; fluorescent label: DsRed) was under 9.85 µM, the IC50 ([1]; fluorescent label: GFP) was 26 µM and the IC50 ([2]; fluorescent label: DsRed) was 35.4 µM. It also gave an IC50 ([2]; fluorescent label: GFP) of under 9.85 µM.

In the case of `C/C(=C\C(=O)OCCCCCCCCC(=O)O)C[C@@H]1OC[C@H](C[C@@H]2O[C@H]2[C@@H](C)[C@H](C)O)[C@@H](O)[C@H]1O` [BACTROBAN], the IC50 ([1]; fluorescent label: DsRed) is reported as under 9.85 µM, the IC50 ([1]; fluorescent label: GFP) is reported as under 9.85 µM and the IC50 ([2]; fluorescent label: DsRed) is reported as under 9.85 µM. The IC50 ([2]; fluorescent label: GFP) was under 9.85 µM.

With `CC1(C)S[C@@H]2[C@H](NC(=O)[C@H](N)c3ccc(O)cc3)C(=O)N2[C@H]1C(=O)O` [AMOXIL] the IC50 ([1]; fluorescent label: DsRed) was 135 µM, the IC50 ([1]; fluorescent label: GFP) was 106 µM and the IC50 ([2]; fluorescent label: DsRed) was under 9.85 µM. For the same compound, the IC50 ([2]; fluorescent label: GFP) was under 9.85 µM.

Work on `Clc1ccccc1C(c1ccccc1)(c1ccccc1)n1ccnc1` [Clotrimazole] yielded an IC50 ([1]; fluorescent label: DsRed) of 16.1 µM, an IC50 ([1]; fluorescent label: GFP) of 15.8 µM and an IC50 ([2]; fluorescent label: DsRed) of under 9.85 µM. The IC50 ([2]; fluorescent label: GFP) was under 9.85 µM.

For `COc1ccc(CCN2CCC(Nc3nc4ccccc4n3Cc3ccc(F)cc3)CC2)cc1` [HISMANAL], the IC50 ([1]; fluorescent label: DsRed) was 80.2 µM, the IC50 ([1]; fluorescent label: GFP) was 106 µM and the IC50 ([2]; fluorescent label: DsRed) was 45.1 µM. It also gave an IC50 ([2]; fluorescent label: GFP) of 20.2 µM.

`CC(=O)OCC1=C(C(=O)O)N2C(=O)[C@@H](NC(=O)Cc3cccs3)[C@H]2SC1` [KEFLIN] showed an IC50 ([1]; fluorescent label: DsRed) of under 9.85 µM, an IC50 ([1]; fluorescent label: GFP) of under 9.85 µM and an IC50 ([2]; fluorescent label: DsRed) of under 9.85 µM. For the same compound, the IC50 ([2]; fluorescent label: GFP) was under 9.85 µM.

In the case of `CNC(=O)c1cc(Oc2ccc(NC(=O)Nc3ccc(Cl)c(C(F)(F)F)c3)cc2)ccn1` [Sorafenib], the IC50 ([1]; fluorescent label: DsRed) is reported as under 9.85 µM, the IC50 ([1]; fluorescent label: GFP) is reported as under 9.85 µM and the IC50 ([2]; fluorescent label: DsRed) is reported as under 9.85 µM. For the same compound, the IC50 ([2]; fluorescent label: GFP) was under 9.85 µM.

In the case of `Cc1ccc(-c2cc(C(F)(F)F)nn2-c2ccc(S(N)(=O)=O)cc2)cc1` [Celecoxib], the IC50 ([1]; fluorescent label: DsRed) is reported as 114 µM and 112 µM, the IC50 ([1]; fluorescent label: GFP) is reported as 112 µM and 95.4 µM and the IC50 ([2]; fluorescent label: DsRed) is reported as 8.58 µM and 20.1 µM. For the same compound, the IC50 ([2]; fluorescent label: GFP) was 9.91 µM and 18.2 µM.

`CC[C@H]1OC(=O)[C@H](C)[C@@H](O[C@H]2C[C@@](C)(OC)[C@@H](O)[C@H](C)O2)[C@H](C)[C@@H](O[C@@H]2O[C@H](C)C[C@H](N(C)C)[C@H]2O)[C@](C)(O)C[C@@H](C)C(=O)[C@H](C)[C@@H](O)[C@]1(C)O` [ERYDERM] showed an IC50 ([1]; fluorescent label: DsRed) of under 9.85 µM, an IC50 ([1]; fluorescent label: GFP) of under 9.85 µM and an IC50 ([2]; fluorescent label: DsRed) of under 9.85 µM. It also gave an IC50 ([2]; fluorescent label: GFP) of under 9.85 µM.

In the case of `C=CC(=O)Nc1cccc(Sc2nc(Nc3ccc(N4CCN(C)CC4)cc3)ncc2Cl)c1` [WZ8040], the IC50 ([1]; fluorescent label: DsRed) is reported as 17.1 µM, the IC50 ([1]; fluorescent label: GFP) is reported as 28.9 µM and the IC50 ([2]; fluorescent label: DsRed) is reported as 2.02 µM. It also gave an IC50 ([2]; fluorescent label: GFP) of 2.67 µM.

Compound `CCCCCCCc1ccc(CCc2cccc(O)c2C(=O)O)cc1` [MG 149] has an IC50 ([1]; fluorescent label: DsRed) of 13.6 µM, an IC50 ([1]; fluorescent label: GFP) of 14.5 µM and an IC50 ([2]; fluorescent label: DsRed) of under 9.85 µM. It also gave an IC50 ([2]; fluorescent label: GFP) of under 9.85 µM.

`CC[C@@H](C(=O)[C@@H](C)[C@@H](O)[C@H](C)[C@@H]1O[C@@H]([C@@H](CC)C(=O)O)CC[C@@H]1C)[C@H]1O[C@]2(C=C[C@@H](O)[C@]3(CC[C@@](C)([C@H]4CC[C@](O)(CC)[C@H](C)O4)O3)O2)[C@H](C)C[C@@H]1C` [KOKCISAN] was tested, and the IC50 ([1]; fluorescent label: DsRed) was 31.9 µM, the IC50 ([1]; fluorescent label: GFP) was under 9.85 µM and the IC50 ([2]; fluorescent label: DsRed) was under 9.85 µM. The IC50 ([2]; fluorescent label: GFP) was 32.4 µM.

`Cc1onc(-c2ccccc2Cl)c1C(=O)N[C@@H]1C(=O)N2[C@@H]1SC(C)(C)[C@@H]2C(=O)O` [TEGOPEN] was tested, and the IC50 ([1]; fluorescent label: DsRed) was under 9.85 µM, the IC50 ([1]; fluorescent label: GFP) was under 9.85 µM and the IC50 ([2]; fluorescent label: DsRed) was under 9.85 µM. For the same compound, the IC50 ([2]; fluorescent label: GFP) was under 9.85 µM.

In the case of `Cn1nnnc1SCC1=C(C(=O)O)N2C(=O)[C@@H](NC(=O)[C@H](OC=O)c3ccccc3)[C@H]2SC1` [MANDOL], the IC50 ([1]; fluorescent label: DsRed) is reported as 21.3 µM, the IC50 ([1]; fluorescent label: GFP) is reported as 22.2 µM and the IC50 ([2]; fluorescent label: DsRed) is reported as under 9.85 µM. The IC50 ([2]; fluorescent label: GFP) was under 9.85 µM.

Work on `O=c1[nH]c(=O)n([C@H]2C[C@H](O)[C@@H](CO)O2)cc1F` [Floxuridine] yielded an IC50 ([1]; fluorescent label: DsRed) of under 0.498 µM, an IC50 ([1]; fluorescent label: GFP) of under 0.498 µM and an IC50 ([2]; fluorescent label: DsRed) of under 0.498 µM. It also gave an IC50 ([2]; fluorescent label: GFP) of under 0.498 µM.
